Test [1] relates to HUVECs. The test is described as follows: Endothelial cell tubule formation assay, HGF-induced. It is filed as cell-based. As to conditions: Homo sapiens, HUVEC, HGF 45 ng/ml, 8 hours. From the text: Then, after staining with Calcein AM (ThermoFisher, CA, USA), images of tubule formation were captured, and the total tube area was quantified with ImageXpress HCS (Molecular Devices, CA, USA).

Test [2] relates to gastric tumor cell lines with high MET mRNA levels. As to the kind of experiment: cells. As to conditions: Homo sapiens, read-out: average IC50 value. As to the method: (§1) These cell lines were obtained from American Type Culture Collection (ATCC), Japanese Collection of Research Bioresources (JCRB), Shanghai Institutes of Biological Sciences, CAS (SIBS), Korean Cell Line Bank (KCLB) or National Institutes of Health (NIH). […] Cell viability was measured after 72 hours using a CellTiter-Glo Luminescent Cell Viability Assay Kit (Promega, WI, USA) according to the manufacturer’s instructions.
(§2) The MET mRNA expression level in each human gastric cell lines was evaluated with real-time PCR. Glyceraldehyde-3-phosphate dehydrogenase (GAPDH) was considered as the internal control. The amplification was performed in a 20 μl mixture containing 10 μl of TaqMan Universal PCR Master Mix (Invitrogen, CA, USA) with UNG, 1 μl of the MET (Hs01565584_m1) or GAPDH (Hs02786624_g1) TaqMan Gene Expression Assay (Thermo, CA, USA), and 5 μl of cDNA solution. Each sample was analyzed in triplicate on an Agilent Technologies Stratagenes Mx3005P (CA, USA). Relative MET mRNA expression is presented as the fold-change, which was calculated using the 2^ (-ΔΔCt) method.

Test [3] concerns gastric tumor cell lines with low MET mRNA levels. The test is described as follows: cells. As to conditions: Homo sapiens, read-out: average IC50 value. Here is the method:
as §1, §2

Test [4] relates to KATOIII. As to the kind of experiment: Cell proliferation assay (CellTiter-Glo, 72 hours). It is filed as cell-based. As to conditions: Homo sapiens, KATO III, read-out: IC50 anti-proliferative.
Test [5] addresses FLT3 (Homo sapiens, UniProt P36888). The test is described as follows: Kinase inhibition assay (LANCE or HTRF). Type of test: biochemical. As to conditions: ATP at Km.
Description: The IC50 values were determined by measuring phosphorylation of peptide substrate poly at ATP concentrations at the Km.

Where only a bound is given, the exact number is not on record here.

FLT3, sequence (P36888 27-993): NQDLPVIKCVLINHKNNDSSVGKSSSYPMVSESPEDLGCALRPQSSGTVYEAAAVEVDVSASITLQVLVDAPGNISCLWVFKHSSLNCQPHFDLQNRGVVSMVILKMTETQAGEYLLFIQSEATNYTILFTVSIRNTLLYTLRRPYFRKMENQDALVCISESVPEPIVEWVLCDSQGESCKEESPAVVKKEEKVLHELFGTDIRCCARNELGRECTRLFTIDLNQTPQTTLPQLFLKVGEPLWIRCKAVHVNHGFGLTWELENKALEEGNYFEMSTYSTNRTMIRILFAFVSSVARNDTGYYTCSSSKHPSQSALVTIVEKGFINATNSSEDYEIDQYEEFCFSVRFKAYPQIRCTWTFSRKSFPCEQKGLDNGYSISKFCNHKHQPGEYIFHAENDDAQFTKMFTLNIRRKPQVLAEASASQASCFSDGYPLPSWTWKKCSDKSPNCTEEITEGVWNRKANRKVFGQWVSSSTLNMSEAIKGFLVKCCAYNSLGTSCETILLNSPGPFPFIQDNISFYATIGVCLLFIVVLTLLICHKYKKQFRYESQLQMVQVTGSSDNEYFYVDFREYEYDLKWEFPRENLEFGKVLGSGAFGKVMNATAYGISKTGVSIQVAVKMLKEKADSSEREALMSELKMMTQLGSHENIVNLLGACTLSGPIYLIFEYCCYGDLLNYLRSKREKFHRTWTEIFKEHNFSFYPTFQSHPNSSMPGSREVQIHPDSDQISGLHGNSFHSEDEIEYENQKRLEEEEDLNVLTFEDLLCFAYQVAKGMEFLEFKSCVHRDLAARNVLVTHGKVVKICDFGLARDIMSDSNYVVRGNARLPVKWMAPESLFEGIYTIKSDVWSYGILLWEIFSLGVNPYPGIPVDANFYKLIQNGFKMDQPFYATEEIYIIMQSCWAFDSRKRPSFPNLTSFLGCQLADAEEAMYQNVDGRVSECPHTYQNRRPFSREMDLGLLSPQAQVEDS

Take `Cc1c(C(=O)Nc2ccc(Oc3ccnc4cc(OCC(C)(C)O)ccc34)c(F)c2)c(=O)n(-c2ccccc2)n1C` [CT053]: the IC50 is 310 nM in test [1] (read-out: IC50, percentage area of tube formation (+ HGF)); 95 nM in test [2]; greater than 10000 nM in test [3]; greater than 10000 nM in test [4]; 8.6 nM in test [5]. Besides, in test [1] (read-out: IC90, Tube Area % Effect (+ HGF)), the IC90 was greater than 3000 nM.

The values are drawn from PMC9632963, “Preclinical characterization and phase I clinical trial of CT053PTSA targets MET, AXL, and VEGFR2 in patients with advanced solid tumors” (Frontiers in Immunology, 2022).
